Columns and labels:
Format in all cases: in vivo
rice [1] = test: Safening effect against butachlor injury to rice, safening agent and herbicide incorporated in soil (Example 15, Table I); set-up: key: herbicide-alone + safener-alone effect (max 100) minus combined effect; conditions: safening agent 8.96 kg/h; butachlor 6.72 kg/h; ~21 days
Procedure: (§1) A good grade of top soil is placed in a container and compacted to a depth of approximately 1.27 cm. from the top of said container. A predetermined number of rice seeds to be tested are placed on top of the soil. A quantity of soil sufficient to substantially fill the container is measured and placed in a second container. A measured quantity of the safening agent dispersed or dissolved in a suitable carrier is applied to the soil in the second container. A measured quantity of butachlor dispersed or dissolved in a suitable carrier is then sprayed on the soil already treated with the safening agent. The soil containing the safening agent and herbicide is thoroughly mixed. This mixing is sometimes referred to as incorporation of the herbicide and safening agent into the soil. The mixing or incorporation provides a substantially uniform distribution of the safening agent and herbicide throughout the soil. The seeds are covered with the soil containing the safening agent and herbicide and the pans are leveled. The pans are then placed on a sand bench in the greenhouse and watered from below as needed. The plants are observed at the end of approximately 21 days and the results in terms of percent inhibition of each seed lot are recorded. For each test series a pan of plants is also prepared containing no herbicide and no safening agent as a control. Additionally, for each test, a pan of plants is prepared with soil covering the seed containing no herbicide and only the measured amount of safening agent being incorporated into the soil covering the seeds to ascertain any herbicidal effect of the safening agent alone. For each series of tests the herbicidal effect of the herbicide is observed from pans of plants treated with the same quantity of herbicide alone. The "safening effect" is determined by adding the hericidal effect of the herbicide when applied alone to the herbicidal effect of the safening agent when applied alone (in no instance, however, will this sum be greater than 100) and substracting from that the herbicidal effect obtained when the herbicide and safening agent are incorporated into the soil as discussed above.
Table I summarizes the results obtained when the compounds of the invention were tested in accordance with the procedure of Example 15.

rice [2] = test: Safening effect against butachlor injury to pre-soaked rice, soil surface application, flooded pots (Example 16, Table II); set-up: key: herbicide injury alone + safener injury alone (max 100) minus combined injury; conditions: safening agent 0.56 kg/h, ~21 days, mean of two replicates
Procedure: as §1
A good grade of top soil is placed in a plastic pot. A measured quantity of the safening agent dispersed or dissolved in a suitable carrier is sprayed on the soil surface. A measured quantity of butachlor herbicide dissolved in a solvent is sprayed on the soil surface. Presoaked rice is seeded into the pots that were previously flooded with water and the water level lowered below the soil surface for one week. The pots are flooded at least up to the soil surface for the duration of the test. The plants are observed at the end of approximately 21 days and the results in terms of the percent inhibition of rice is recorded. As in Example 15, for each test pots are prepared containing soil treated only with butachlor. For each test, pots are also prepared containing soil treated only with the safening agent. Pots are also prepared in which the soil is not treated with either the herbicide or the safening agent. The safening effect is determined in accordance with Example 15.
Table II summarizes the results obtained when the compounds of the invention were tested in accordance with the procedure of Example 16.

rice [3] = test: Inhibition of rice by butachlor and safening agent sprayed on soil surface, flooded pots (Example 17, Table III); conditions: ~21 days, mean of two replicates
Procedure: (§2) 5.08 cm. of a good grade of top soil is placed in a 7.62 cm. deep plastic pot. A predetermined number of barnyard grass seeds are applied to the soil surface. A measured quantity of the safening agent dispersed or dissolved in a suitable carrier is sprayed on the soil surface. A measured quantity of butachlor herbicide dissolved in a solvent is sprayed on the soil surface. Pre-soaked rice is seeded into the pots that were previously flooded with water. The water level is lowered below the soil surface for one week to allow barnyard grass to emerge. The pots are flooded just above the soil surface for the duration of the test. The plants are observed at the end of approximately 21 days and the results in terms of percent inhibition recorded. For each test, pots are prepared containing soil treated only with butachlor. For each test, pots are prepared containing soil treated only with the safening agent. Pots are also prepared containing untreated soil.

Barnyard Grass [4] = test: Inhibition of barnyard grass by butachlor and safening agent sprayed on soil surface, flooded pots (Example 17, Table III); conditions: ~21 days, mean of two replicates
Procedure: as §2

rice [5] = test: Inhibition of rice, safening agent and butachlor applied to soil surface, flooded pots (Example 18, Table IV); conditions: ~21 days, mean of two replicates
Procedure: as §2, with “safening agent and butachlor dispersed or” for “safening agent dispersed or”, “carrier is applied to the soil” for “carrier is sprayed on the soil surface. A measured quantity of butachlor herbicide dissolved in a solvent is sprayed on the soil”, “for one week. The pots” for “for one week to allow barnyard grass to emerge. The pots”, “also prepared with untreated soil.” for “also prepared containing untreated soil.”

Barnyard Grass [6] = test: Inhibition of barnyard grass, safening agent and butachlor applied to soil surface, flooded pots (Example 18, Table IV); conditions: ~21 days, mean of two replicates
Procedure: as §2, with “safening agent and butachlor dispersed or” for “safening agent dispersed or”, “carrier is applied to the soil” for “carrier is sprayed on the soil surface. A measured quantity of butachlor herbicide dissolved in a solvent is sprayed on the soil”, “for one week. The pots” for “for one week to allow barnyard grass to emerge. The pots”, “also prepared with untreated soil.” for “also prepared containing untreated soil.”

Barnyard Grass [7] = test: Percent inhibition of barnyard grass, mixture incorporated in soil cover layer (Example 19, Table V); conditions: ~21 days
Excerpt: (§3) 5.08 cm. of a good grade of top soil is placed in a 7.62 cm. deep plastic pot. A predetermined number of weed seeds and rice seeds are applied to the soil surface. Butachlor and ethyl 2-chloro-4-phenyl-5-thiazolecarboxylate are applied to a soil cover layer as a mixture and incorporated by shaking the treated soil cover layer in a plastic bag. The cover layers were then placed on the pre-seeded pots. The plants are observed at the end of approximately 21 days and the results in terms of percent inhibition recorded. For each test, pots are prepared containing soil treated only with butachlor. For each test, pots are prepared containing soil treated only with the safening agent. Pots are also prepared with untreated soil.

Crabgrass = test: Percent inhibition of crabgrass, mixture incorporated in soil cover layer (Example 19, Table V); conditions: ~21 days
Excerpt: as §3

Panicum = test: Percent inhibition of panicum, mixture incorporated in soil cover layer (Example 19, Table V); conditions: ~21 days
Excerpt: as §3

Foxtail = test: Percent inhibition of foxtail, mixture incorporated in soil cover layer (Example 19, Table V); conditions: ~21 days
Excerpt: as §3

rice [8] = test: Percent inhibition of rice, mixture incorporated in soil cover layer (Example 19, Table V); conditions: ~21 days
Excerpt: as §3

[9] = safening agent 0.07 kg/h + butachlor 0.07 kg/h
[10] = safening agent 0.07 kg/h + butachlor 0.28 kg/h
[11] = safening agent 0.07 kg/h + butachlor 1.12 kg/h
[12] = safening agent 0.28 kg/h + butachlor 0.07 kg/h
[13] = safening agent 0.28 kg/h + butachlor 0.28 kg/h
[14] = safening agent 0.28 kg/h + butachlor 1.12 kg/h
[15] = safening agent 1.12 kg/h + butachlor 0.07 kg/h
[16] = safening agent 1.12 kg/h + butachlor 0.28 kg/h
[17] = safening agent 1.12 kg/h + butachlor 1.12 kg/h

CCOC(=O)c1sc(Cl)nc1-c1ccc(Cl)cc1 [Example 4, Ethyl 2-Chloro-4-p-Chlorophenyl-5-Thiazolecarboxylate]
28%: Inhibition, Rice (rice [3]; [17])
40%: Inhibition, Rice (rice [3]; [14]) | % Inhibition, Rice (rice [5]; [14])
32: Safening Effect (rice [2]; butachlor 1.12 kg/h)
90%: % Inhibition, Barnyard Grass (Barnyard Grass [6]; [9])
30%: % Inhibition, Rice (rice [5]; [13]) | % Inhibition, Rice (rice [5]; [16])
30: Safening Effect (rice [2]; butachlor 0.07 kg/h)
85%: % Inhibition, Barnyard Grass (Barnyard Grass [6]; [12]) | % Inhibition, Barnyard Grass (Barnyard Grass [6]; [15])
78%: Inhibition, Rice (rice [3]; [11])
70: Safening Effect (rice [2]; butachlor 0.28 kg/h)
5%: % Inhibition, Rice (rice [5]; [9])
88%: % Inhibition, Rice (rice [5]; [11]) | % Inhibition, Rice (rice [5]; [17])
0%: Inhibition, Rice (rice [3]; [9]) | Inhibition, Rice (rice [3]; [10]) | Inhibition, Rice (rice [3]; [12]) | Inhibition, Rice (rice [3]; [13]) | Inhibition, Rice (rice [3]; [15]) | Inhibition, Rice (rice [3]; [16]) | Inhibition, Rice (rice [3]; safening agent alone 0.07 kg/h) | Inhibition, Rice (rice [3]; safening agent alone 0.28 kg/h) | Inhibition, Rice (rice [3]; safening agent alone 1.12 kg/h) | Inhibition, Barnyard Grass (Barnyard Grass [4]; safening agent alone 0.07 kg/h) | Inhibition, Barnyard Grass (Barnyard Grass [4]; safening agent alone 0.28 kg/h) | Inhibition, Barnyard Grass (Barnyard Grass [4]; safening agent alone 1.12 kg/h) | % Inhibition, Rice (rice [5]; [12]) | % Inhibition, Rice (rice [5]; [15]) | % Inhibition, Rice (rice [5]; safening agent alone 0.07 kg/h) | % Inhibition, Rice (rice [5]; safening agent alone 0.28 kg/h) | % Inhibition, Rice (rice [5]; safening agent alone 1.12 kg/h) | % Inhibition, Barnyard Grass (Barnyard Grass [6]; safening agent alone 0.07 kg/h) | % Inhibition, Barnyard Grass (Barnyard Grass [6]; safening agent alone 0.28 kg/h) | % Inhibition, Barnyard Grass (Barnyard Grass [6]; safening agent alone 1.12 kg/h)
85: Safening Effect (rice [1])
100%: Inhibition, Barnyard Grass (Barnyard Grass [4]; [10]) | Inhibition, Barnyard Grass (Barnyard Grass [4]; [11]) | Inhibition, Barnyard Grass (Barnyard Grass [4]; [14]) | Inhibition, Barnyard Grass (Barnyard Grass [4]; [17]) | % Inhibition, Barnyard Grass (Barnyard Grass [6]; [10]) | % Inhibition, Barnyard Grass (Barnyard Grass [6]; [11]) | % Inhibition, Barnyard Grass (Barnyard Grass [6]; [13]) | % Inhibition, Barnyard Grass (Barnyard Grass [6]; [14]) | % Inhibition, Barnyard Grass (Barnyard Grass [6]; [16]) | % Inhibition, Barnyard Grass (Barnyard Grass [6]; [17])
63%: % Inhibition, Rice (rice [5]; [10])
99%: Inhibition, Barnyard Grass (Barnyard Grass [4]; [9]) | Inhibition, Barnyard Grass (Barnyard Grass [4]; [12]) | Inhibition, Barnyard Grass (Barnyard Grass [4]; [13]) | Inhibition, Barnyard Grass (Barnyard Grass [4]; [15]) | Inhibition, Barnyard Grass (Barnyard Grass [4]; [16])

CCCCOCN(C(=O)CCl)c1c(CC)cccc1CC [butachlor, 2-chloro-2',6'-diethyl-N-(butoxymethyl)acetanilide, reference compound]
74%: Inhibition, Rice (rice [3]; butachlor alone 0.28 kg/h)
50%: Percent Inhibition, Rice (rice [8]; butachlor alone 2.24 kg/h)
93%: Percent Inhibition, Rice (rice [8]; butachlor alone 8.96 kg/h)
64%: % Inhibition, Rice (rice [5]; butachlor alone 0.07 kg/h)
31%: Inhibition, Rice (rice [3]; butachlor alone 0.07 kg/h)
99%: Inhibition, Barnyard Grass (Barnyard Grass [4]; butachlor alone 0.07 kg/h) | Percent Inhibition, Panicum (Panicum; butachlor alone 2.24 kg/h)
78%: % Inhibition, Rice (rice [5]; butachlor alone 0.28 kg/h) | Percent Inhibition, Rice (rice [8]; butachlor alone 4.48 kg/h)
100%: Inhibition, Barnyard Grass (Barnyard Grass [4]; butachlor alone 0.28 kg/h) | Inhibition, Barnyard Grass (Barnyard Grass [4]; butachlor alone 1.12 kg/h) | % Inhibition, Rice (rice [5]; butachlor alone 1.12 kg/h) | % Inhibition, Barnyard Grass (Barnyard Grass [6]; butachlor alone 0.07 kg/h) | % Inhibition, Barnyard Grass (Barnyard Grass [6]; butachlor alone 0.28 kg/h) | % Inhibition, Barnyard Grass (Barnyard Grass [6]; butachlor alone 1.12 kg/h) | Percent Inhibition, Barnyard Grass (Barnyard Grass [7]; butachlor alone 2.24 kg/h) | Percent Inhibition, Barnyard Grass (Barnyard Grass [7]; butachlor alone 4.48 kg/h) | Percent Inhibition, Barnyard Grass (Barnyard Grass [7]; butachlor alone 8.96 kg/h) | Percent Inhibition, Crabgrass (Crabgrass; butachlor alone 2.24 kg/h) | Percent Inhibition, Crabgrass (Crabgrass; butachlor alone 4.48 kg/h) | Percent Inhibition, Crabgrass (Crabgrass; butachlor alone 8.96 kg/h) | Percent Inhibition, Panicum (Panicum; butachlor alone 4.48 kg/h) | Percent Inhibition, Panicum (Panicum; butachlor alone 8.96 kg/h) | Percent Inhibition, Foxtail (Foxtail; butachlor alone 2.24 kg/h) | Percent Inhibition, Foxtail (Foxtail; butachlor alone 4.48 kg/h) | Percent Inhibition, Foxtail (Foxtail; butachlor alone 8.96 kg/h)
98%: Inhibition, Rice (rice [3]; butachlor alone 1.12 kg/h)

From patent US4336389A, “2-Substituted-4-aryl-5-thiazolecarboxylic acids and their derivatives as safening agents” (Monsanto Company, priority 1978, dated 1982)
